Test results published in ChEMBL document CHEMBL1201862, “PubChem BioAssay data set” (2004).
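Exposure lasted 48 hours, with cells grown in 96-well plates and compounds tested at five concentrations. GI50 marks 50% less growth.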 Activity calls are given as the source filed them. Rule as the data show it: active = GI50 up to about 1.1 µM and inactive = higher.

Experiments:
Experiment in all cases: growth of human tumour cells (NCI), 48 h
SN12C = test system: SN12C
IGROV-1 = test system: IGROV-1
EKVX = test system: EKVX
NCI-H460 = test system: NCI-H460
A549 = test system: A549
LOX IMVI = test system: LOX IMVI
SF-295 = test system: SF-295
SW-620 = test system: SW-620
COLO 205 = test system: COLO 205
SF-268 = test system: SF-268
HOP-92 = test system: HOP-92
SNB-19 = test system: SNB-19
T47D = test system: T47D
SK-MEL-28 = test system: SK-MEL-28
OVCAR-4 = test system: OVCAR-4
MOLT-4 = test system: MOLT-4
CCRF-CEM = test system: CCRF-CEM
MCF7 = test system: MCF7
PC-3 = test system: PC-3
K562 = test system: K562

Row | SMILES | GI50 (SN12C) | GI50 (IGROV-1) | GI50 (EKVX) | GI50 (NCI-H460) | GI50 (A549) | GI50 (LOX IMVI) | GI50 (SF-295) | GI50 (SW-620) | GI50 (COLO 205) | GI50 (SF-268) | GI50 (HOP-92) | GI50 (SNB-19) | GI50 (T47D) | GI50 (SK-MEL-28) | GI50 (OVCAR-4) | GI50 (MOLT-4) | GI50 (CCRF-CEM) | GI50 (MCF7) | GI50 (PC-3) | GI50 (K562)
1 | Cc1ccc2c(c1)[nH]c(=S)n2C=C(C(N)=O)C(N)=O | > 100 µM (inactive) | > 100 µM (inactive) | 33.3 µM (inactive) | > 100 µM (inactive) | > 100 µM (inactive) | > 100 µM (inactive) | > 100 µM (inactive) | > 100 µM (inactive) | > 100 µM (inactive) | > 100 µM (inactive) | > 100 µM (inactive) | > 100 µM (inactive) | > 100 µM (inactive) | > 100 µM (inactive) | > 100 µM (inactive) | – | – | – | – | –
2 | C=C1C(=O)O[C@H]2[C@@H](O)[C@H](C)CCC[C@]3(C)O[C@H]3CC[C@@]3(C)O[C@@H]3C[C@@H]12 | 5.74 µM (inactive) | 5.24 µM (inactive) | 4.06 µM (inactive) | – | 9.33 µM (inactive) | – | 8.55 µM (inactive) | 1.52 µM (inactive) | 3.01 µM (inactive) | 6.07 µM (inactive) | – | 11.9 µM (inactive) | 7.66 µM (inactive) | 2.83 µM (inactive) | 2.66 µM (inactive) | 1.55 µM (inactive) | 1.58 µM (inactive) | 2.08 µM (inactive) | 7.43 µM (inactive) | 1.14 µM (inactive)
3 | CCCCCCCCCCCCCCCCCCNc1ccn(C2OC(CO)C(OP(=O)(O)OCC3CCC(n4ccc(N)nc4=O)O3)C2O)c(=O)n1 (configuration not stated) | > 100 µM (inactive) | 27.2 µM (inactive) | > 100 µM (inactive) | 55.8 µM (inactive) | > 100 µM (inactive) | 32.3 µM (inactive) | > 100 µM (inactive) | 46.3 µM (inactive) | 45.9 µM (inactive) | 27.9 µM (inactive) | > 100 µM (inactive) | > 100 µM (inactive) | 83.4 µM (inactive) | 61.5 µM (inactive) | 93.8 µM (inactive) | 3.9 µM (inactive) | 16.7 µM (inactive) | – | 17.4 µM (inactive) | –
4 | Cc1ccc(-c2c(C#N)c(-c3ccccc3)n(NS(=O)(=O)c3ccccc3)c(=O)c2C#N)cc1 | > 100 µM (inactive) | 40.6 µM (inactive) | > 100 µM (inactive) | 61.7 µM (inactive) | > 100 µM (inactive) | 51.1 µM (inactive) | 60.7 µM (inactive) | 86.3 µM (inactive) | > 100 µM (inactive) | 63.1 µM (inactive) | 61.5 µM (inactive) | 76 µM (inactive) | – | > 100 µM (inactive) | > 100 µM (inactive) | 20.7 µM (inactive) | 32.1 µM (inactive) | 76.2 µM (inactive) | 48.1 µM (inactive) | > 100 µM (inactive)
5 | Cc1cc(C)c2c(c1)C/C(=C\c1cccc(C)c1C(=O)O)C2=O | 42.6 µM (inactive) | 50.7 µM (inactive) | 60.7 µM (inactive) | 41.8 µM (inactive) | 43.3 µM (inactive) | 69.5 µM (inactive) | 78 µM (inactive) | 64.4 µM (inactive) | – | 24.4 µM (inactive) | > 100 µM (inactive) | 59.6 µM (inactive) | > 100 µM (inactive) | 87.9 µM (inactive) | 75 µM (inactive) | 50.5 µM (inactive) | 36.6 µM (inactive) | – | 39.5 µM (inactive) | 31.1 µM (inactive)
6 | COC(=O)C(Cc1c(C2Nc3ccccc3C2CC(NC(=O)CNC(C)=O)C(=O)OC)[nH]c2ccccc12)NC(=O)CNC(C)=O (configuration not stated) | > 100 µM (inactive) | > 100 µM (inactive) | > 100 µM (inactive) | > 100 µM (inactive) | > 100 µM (inactive) | > 100 µM (inactive) | > 100 µM (inactive) | > 100 µM (inactive) | > 100 µM (inactive) | > 100 µM (inactive) | > 100 µM (inactive) | > 100 µM (inactive) | > 100 µM (inactive) | > 100 µM (inactive) | > 100 µM (inactive) | – | > 100 µM (inactive) | > 100 µM (inactive) | – | > 100 µM (inactive)
7 | Nc1nc(-c2ccccc2)cc(-c2ccc(OCc3ccccc3)cc2O)n1 | 76.9 µM (inactive) | 32.7 µM (inactive) | 50.4 µM (inactive) | 40.4 µM (inactive) | 33.4 µM (inactive) | 33.9 µM (inactive) | 36.4 µM (inactive) | 39.4 µM (inactive) | 45.7 µM (inactive) | 44.3 µM (inactive) | 38.7 µM (inactive) | 50.2 µM (inactive) | – | 89.9 µM (inactive) | 71.6 µM (inactive) | 48.4 µM (inactive) | 17 µM (inactive) | 32.1 µM (inactive) | 34.4 µM (inactive) | 43 µM (inactive)
8 | CCCCC[C@@H]1OC(=O)[C@@]2(CC3c4ccccc4C2c2ccccc23)[C@H]1C(=O)OC | 74.3 µM (inactive) | > 100 µM (inactive) | 39.7 µM (inactive) | 11.6 µM (inactive) | 24.4 µM (inactive) | 71.4 µM (inactive) | 71 µM (inactive) | 52 µM (inactive) | 14.2 µM (inactive) | > 100 µM (inactive) | > 100 µM (inactive) | > 100 µM (inactive) | – | – | 58.2 µM (inactive) | > 10 µM (inactive) | 17.2 µM (inactive) | 21.8 µM (inactive) | 14.6 µM (inactive) | 15.8 µM (inactive)
9 | COc1nc2c(c(=O)n1C)N=C(c1ccccc1)[C@H](C(CC(=O)c1ccccc1)c1ccccc1)C(c1ccccc1)N2 (some centres not stated) | 44.7 µM (inactive) | 49.3 µM (inactive) | 22.2 µM (inactive) | – | 32.3 µM (inactive) | > 100 µM (inactive) | 70 µM (inactive) | > 100 µM (inactive) | 98.9 µM (inactive) | – | > 100 µM (inactive) | > 100 µM (inactive) | – | > 100 µM (inactive) | 20.1 µM (inactive) | 19.5 µM (inactive) | > 100 µM (inactive) | 36.1 µM (inactive) | 42 µM (inactive) | 55.5 µM (inactive)
10 | Cn1c(=O)nc2n(CCO)c(-c3ccccc3)c(-c3ccccc3)nc-2c1=O | > 100 µM (inactive) | > 100 µM (inactive) | > 100 µM (inactive) | 39.1 µM (inactive) | > 100 µM (inactive) | > 100 µM (inactive) | > 100 µM (inactive) | > 100 µM (inactive) | > 100 µM (inactive) | > 100 µM (inactive) | > 100 µM (inactive) | > 100 µM (inactive) | > 100 µM (inactive) | > 100 µM (inactive) | > 100 µM (inactive) | > 100 µM (inactive) | > 100 µM (inactive) | – | > 100 µM (inactive) | > 100 µM (inactive)
11 | Cc1ccc(C(O)c2cnc(C)n2Cc2ccccc2)cc1 (configuration not stated) | > 100 µM (inactive) | > 100 µM (inactive) | > 100 µM (inactive) | > 100 µM (inactive) | > 100 µM (inactive) | > 100 µM (inactive) | > 100 µM (inactive) | > 100 µM (inactive) | > 100 µM (inactive) | > 100 µM (inactive) | > 100 µM (inactive) | > 100 µM (inactive) | – | > 100 µM (inactive) | > 100 µM (inactive) | – | – | > 100 µM (inactive) | > 100 µM (inactive) | > 100 µM (inactive)
12 | CC(C)(C)NC1C2CCC(C)(C1O)C2(C)C (configuration not stated) | – | > 100 µM (inactive) | > 100 µM (inactive) | > 100 µM (inactive) | > 100 µM (inactive) | > 100 µM (inactive) | > 100 µM (inactive) | > 100 µM (inactive) | > 100 µM (inactive) | > 100 µM (inactive) | – | > 100 µM (inactive) | > 100 µM (inactive) | > 100 µM (inactive) | > 100 µM (inactive) | > 100 µM (inactive) | – | 4.14 µM (inactive) | > 100 µM (inactive) | > 100 µM (inactive)
13 | ClCCCC1COc2ccccc2O1 (configuration not stated) | > 100 µM (inactive) | 46.3 µM (inactive) | > 100 µM (inactive) | > 100 µM (inactive) | > 100 µM (inactive) | – | > 100 µM (inactive) | > 100 µM (inactive) | > 100 µM (inactive) | 96.6 µM (inactive) | 43.6 µM (inactive) | > 100 µM (inactive) | – | > 100 µM (inactive) | > 100 µM (inactive) | > 100 µM (inactive) | > 100 µM (inactive) | > 100 µM (inactive) | > 100 µM (inactive) | > 100 µM (inactive)
14 | COc1cc(CNC2=NCCC2)cc(OC)c1OC | > 100 µM (inactive) | > 100 µM (inactive) | 56.1 µM (inactive) | > 100 µM (inactive) | > 100 µM (inactive) | – | > 100 µM (inactive) | > 100 µM (inactive) | > 100 µM (inactive) | > 100 µM (inactive) | > 100 µM (inactive) | > 100 µM (inactive) | – | > 100 µM (inactive) | > 100 µM (inactive) | > 100 µM (inactive) | > 100 µM (inactive) | > 100 µM (inactive) | > 100 µM (inactive) | 65.5 µM (inactive)
15 | CCC1(O)C(=O)OCc2c1cc1n(c2=O)Cc2cc3c(N)cccc3nc2-1 (configuration not stated) [RS-9-Aminocamptothecin] | < 0.01 µM (active) | 0.327 µM (active) | 1.2 µM (inactive) | < 0.0106 µM (active) | 0.0354 µM (active) | < 0.01 µM (active) | 0.0102 µM (active) | 0.0281 µM (active) | 0.741 µM (active) | < 0.01 µM (active) | 0.0349 µM (active) | < 0.0138 µM (active) | – | 0.188 µM (active) | 0.345 µM (active) | < 0.01 µM (active) | < 0.01 µM (active) | < 0.01 µM (active) | 0.115 µM (active) | 0.0309 µM (active)
